Format in all cases: cell-based
For one assay, the target named is T1, Rat mGlu2 (Rattus norvegicus, UniProt P31421).
T1 construct: expressed in transfected cells; host or cells: HEK-293 co-expressing GIRK channels
Description: mGlu receptor in vitro assay, thallium flux through GIRK channels, rat mGlu2. Particulars: PAM potency with EC20 glutamate. In short, it runs like this: (§1)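 HEK-293 cells co-expressing rat mGlu2 or mGlu3 and GIRK, dye-loaded with FluoZin2-AM, compound added about 2.5 min before thallium buffer with EC20 glutamate; potency from the 5-15 s fluorescence slope, 10-point 4-parameter fit. Calcium assay at mGlu3 used TREx293 mGlu3 Gα15 cells induced with tetracycline 20 ng/mL for 20 h.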

For the next assay, the target named is T2, Rat mGlu3 (Rattus norvegicus, UniProt P31422).
T2 construct: expressed in transfected cells; host or cells: HEK-293 co-expressing GIRK channels
Kind of assay: mGlu receptor in vitro assay (thallium flux through GIRK channels / calcium assay), rat mGlu3. The conditions noted are these: PAM potency with EC20 glutamate. In short, it runs like this:
as §1

For a further assay, the target named is Human mGlu2 (Homo sapiens, UniProt Q14416). Kind of assay: mGlu receptor in vitro assay, human mGlu2.
A further assay addresses Human mGlu3 (Homo sapiens, UniProt Q14832). Description: mGlu receptor in vitro assay, human mGlu3.

SMILES strings stand for the structures. A value given as a limit tells only on which side of the number the result lay.

Chain of Human mGlu2 (Q14416 19-872): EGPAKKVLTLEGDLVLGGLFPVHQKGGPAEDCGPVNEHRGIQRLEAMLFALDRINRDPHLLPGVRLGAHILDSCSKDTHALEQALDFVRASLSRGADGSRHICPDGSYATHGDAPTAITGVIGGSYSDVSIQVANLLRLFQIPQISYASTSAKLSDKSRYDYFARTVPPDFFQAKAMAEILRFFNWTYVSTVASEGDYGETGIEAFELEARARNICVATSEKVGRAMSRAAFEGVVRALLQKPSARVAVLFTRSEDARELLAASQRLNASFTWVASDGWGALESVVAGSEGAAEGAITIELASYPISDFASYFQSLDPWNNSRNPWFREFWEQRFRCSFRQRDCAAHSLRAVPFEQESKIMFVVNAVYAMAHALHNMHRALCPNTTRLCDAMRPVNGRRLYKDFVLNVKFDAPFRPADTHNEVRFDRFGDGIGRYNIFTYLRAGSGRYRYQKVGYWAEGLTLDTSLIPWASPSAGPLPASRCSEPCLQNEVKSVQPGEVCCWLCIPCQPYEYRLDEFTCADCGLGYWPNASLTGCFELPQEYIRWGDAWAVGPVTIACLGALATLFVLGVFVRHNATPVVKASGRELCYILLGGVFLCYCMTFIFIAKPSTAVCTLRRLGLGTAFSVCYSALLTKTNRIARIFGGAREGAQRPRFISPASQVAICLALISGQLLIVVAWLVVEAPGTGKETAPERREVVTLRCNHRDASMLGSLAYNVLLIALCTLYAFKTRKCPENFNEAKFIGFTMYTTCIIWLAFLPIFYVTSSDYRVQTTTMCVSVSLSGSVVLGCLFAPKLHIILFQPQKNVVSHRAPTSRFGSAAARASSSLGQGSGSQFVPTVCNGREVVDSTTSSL
T2 sequence (P31422 23-879): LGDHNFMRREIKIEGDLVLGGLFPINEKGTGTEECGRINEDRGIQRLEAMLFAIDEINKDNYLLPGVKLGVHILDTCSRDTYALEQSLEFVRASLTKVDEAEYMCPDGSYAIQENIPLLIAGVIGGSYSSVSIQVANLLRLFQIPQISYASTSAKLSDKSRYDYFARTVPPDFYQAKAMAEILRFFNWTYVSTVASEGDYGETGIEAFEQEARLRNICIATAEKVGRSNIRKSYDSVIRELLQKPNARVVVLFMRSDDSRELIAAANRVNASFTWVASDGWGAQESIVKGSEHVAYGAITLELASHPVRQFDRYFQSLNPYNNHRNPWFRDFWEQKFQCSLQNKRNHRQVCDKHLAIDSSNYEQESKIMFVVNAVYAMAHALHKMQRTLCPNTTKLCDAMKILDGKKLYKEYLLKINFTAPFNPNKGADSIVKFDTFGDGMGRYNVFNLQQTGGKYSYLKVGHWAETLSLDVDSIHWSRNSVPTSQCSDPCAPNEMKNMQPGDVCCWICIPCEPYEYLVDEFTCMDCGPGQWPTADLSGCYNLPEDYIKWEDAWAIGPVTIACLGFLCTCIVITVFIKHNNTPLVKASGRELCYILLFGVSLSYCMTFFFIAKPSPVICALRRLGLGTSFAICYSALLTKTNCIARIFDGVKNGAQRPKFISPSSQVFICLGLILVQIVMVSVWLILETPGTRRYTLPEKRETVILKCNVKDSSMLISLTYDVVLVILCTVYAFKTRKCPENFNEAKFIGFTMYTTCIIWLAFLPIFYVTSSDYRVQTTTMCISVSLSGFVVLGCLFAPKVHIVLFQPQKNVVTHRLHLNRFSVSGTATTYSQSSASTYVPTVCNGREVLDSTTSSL
Chain of Human mGlu3 (Q14832 23-879): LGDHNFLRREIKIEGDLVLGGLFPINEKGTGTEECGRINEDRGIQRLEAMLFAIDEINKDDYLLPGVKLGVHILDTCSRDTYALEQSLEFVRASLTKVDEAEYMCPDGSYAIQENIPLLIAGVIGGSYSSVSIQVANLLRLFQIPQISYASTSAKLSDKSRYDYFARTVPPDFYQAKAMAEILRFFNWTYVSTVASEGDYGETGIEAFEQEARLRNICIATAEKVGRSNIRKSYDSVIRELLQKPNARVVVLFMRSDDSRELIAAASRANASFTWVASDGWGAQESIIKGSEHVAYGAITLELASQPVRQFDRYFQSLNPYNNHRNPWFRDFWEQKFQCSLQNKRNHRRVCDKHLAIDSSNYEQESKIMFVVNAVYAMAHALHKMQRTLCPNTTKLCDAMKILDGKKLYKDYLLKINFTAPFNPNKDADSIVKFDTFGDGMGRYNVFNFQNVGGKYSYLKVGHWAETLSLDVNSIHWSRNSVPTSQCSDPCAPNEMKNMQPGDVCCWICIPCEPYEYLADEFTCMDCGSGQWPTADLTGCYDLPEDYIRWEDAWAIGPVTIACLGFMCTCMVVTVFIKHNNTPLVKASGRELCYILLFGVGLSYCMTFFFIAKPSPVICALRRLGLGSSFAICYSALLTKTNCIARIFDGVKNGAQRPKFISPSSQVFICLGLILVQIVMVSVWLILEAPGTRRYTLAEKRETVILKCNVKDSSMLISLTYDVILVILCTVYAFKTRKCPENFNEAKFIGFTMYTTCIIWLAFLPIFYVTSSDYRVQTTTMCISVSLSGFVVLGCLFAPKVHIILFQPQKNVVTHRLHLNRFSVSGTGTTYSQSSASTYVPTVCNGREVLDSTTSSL
T1 sequence (P31421 19-872): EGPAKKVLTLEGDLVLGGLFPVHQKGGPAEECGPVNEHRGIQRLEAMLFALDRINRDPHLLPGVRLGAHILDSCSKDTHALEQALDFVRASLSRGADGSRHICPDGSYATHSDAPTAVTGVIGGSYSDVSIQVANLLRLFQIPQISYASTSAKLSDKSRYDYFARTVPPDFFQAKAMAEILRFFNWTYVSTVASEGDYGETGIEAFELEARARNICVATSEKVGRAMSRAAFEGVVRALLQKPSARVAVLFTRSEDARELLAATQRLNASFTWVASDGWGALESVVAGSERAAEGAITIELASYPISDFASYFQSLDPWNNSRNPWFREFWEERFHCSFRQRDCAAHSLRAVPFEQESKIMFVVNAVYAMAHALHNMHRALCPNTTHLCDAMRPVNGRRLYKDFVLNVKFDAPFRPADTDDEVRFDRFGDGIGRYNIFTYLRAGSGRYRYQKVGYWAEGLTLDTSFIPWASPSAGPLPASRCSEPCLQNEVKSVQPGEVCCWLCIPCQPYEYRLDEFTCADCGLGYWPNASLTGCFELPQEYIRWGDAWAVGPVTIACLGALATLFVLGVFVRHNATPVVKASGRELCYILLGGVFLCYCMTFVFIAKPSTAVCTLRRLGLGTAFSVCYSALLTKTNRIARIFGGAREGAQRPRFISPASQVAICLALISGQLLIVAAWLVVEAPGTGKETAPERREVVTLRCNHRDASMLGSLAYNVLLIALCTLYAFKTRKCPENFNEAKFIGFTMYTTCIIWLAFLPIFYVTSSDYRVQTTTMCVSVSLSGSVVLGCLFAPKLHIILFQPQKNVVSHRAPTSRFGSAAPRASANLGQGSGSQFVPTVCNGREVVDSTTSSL

By EC50 is commonly meant the midpoint of the concentration-response curve. Regarding `CCCC(=O)c1ccc(OC/C=C/COc2ccc(C(=O)O)c(Cl)c2)c(C)c1O` [Example 44, 4-[(2E)-4-(4-Butanoyl-3-hydroxy-2-methylphenoxy)but-2-enyloxy]-2-chlorobenzoic acid], the EC50 at Rat mGlu2 came out at 44 nM; at Rat mGlu3 it was 1030 nM; at Human mGlu2 it was 20 nM; on Human mGlu3 it was 1130 nM.
As to `CCCC(=O)c1ccc(OCCCCCOc2ccc(C(=O)O)c(F)c2)c(C)c1O` [Example 45, 4-[5-(4-Butanoyl-3-hydroxy-2-methylphenoxy)pentyloxy]-2-fluorobenzoic acid], the EC50 on Rat mGlu2 is 66 nM; on Rat mGlu3 it was 1090 nM; on Human mGlu2 it was 13 nM; at Human mGlu3, 943 nM.
Regarding `Cc1c(OCCCCCOc2ccc(C(=O)O)c(Cl)c2)ccc(C(=O)CC(C)C)c1O` [Example 46, 2-Chloro-4-{5-[3-hydroxy-2-methyl-4-(3-methylbutanoyl)phenoxy]pentyloxy}benzoic acid], the EC50 at Rat mGlu2 was found to be 39 nM; on Rat mGlu3, 427 nM; on Human mGlu2, 12 nM; on Human mGlu3, 414 nM.
`CCCC(=O)c1ccc(OCCCCCOc2ccc(C(=O)O)cc2Cl)c(C)c1O` [Example 50, 4-[5-(4-Butanoyl-3-hydroxy-2-methylphenoxy)pentyloxy]-3-chlorobenzoic acid]: the EC50 at Rat mGlu2 was 43 nM; at Rat mGlu3 it was > 10000 nM; at Human mGlu2 it was 21 nM; on Human mGlu3, > 10000 nM.
As to `[2H]C([2H])(CCCC([2H])([2H])Oc1ccc(C(=O)CCC)c(O)c1C)Oc1ccc(C(=O)O)cc1OC` [Example 51, 4-((5-(4-Butyryl-3-hydroxy-2-methylphenoxy)pentyl-1,1,5,5-d4)oxy)-3-methoxybenzoic acid], the EC50 on Rat mGlu2 was 22 nM; at Rat mGlu3, 2380 nM; on Human mGlu2 it was 9 nM; at Human mGlu3, > 30000 nM.
On to `CCCC(=O)c1ccc(OCCCCCOc2ccc(Cl)c(C(=O)O)c2)c(C)c1O` [Example 52, 5-[5-(4-Butanoyl-3-hydroxy-2-methylphenoxy)pentyloxy]-2-chlorobenzoic acid], for which the EC50 at Rat mGlu2 is 36 nM; at Rat mGlu3 it was > 30000 nM; on Human mGlu2, 25 nM; at Human mGlu3, > 30000 nM.
In the case of `[2H]C([2H])(CCCC([2H])([2H])Oc1ccc(C(=O)CCC)c(O)c1C)Oc1ccc(C(=O)O)c(Cl)c1` [Example 53, 4-((5-(4-Butyryl-3-hydroxy-2-methylphenoxy)pentyl-1,1,5,5-d4)oxy)-2-chlorobenzoic acid], the 50% effective concentration (EC50) on Rat mGlu2 is 19 nM; on Rat mGlu3, 920 nM; at Human mGlu2 it was 6 nM; at Human mGlu3, 708 nM.
Regarding `CCCC(=O)c1ccc(OCCCCCOc2ccc(C(=O)O)c(Cl)c2)c(C)c1O` [Example 54, 4-[5-(4-Butanoyl-3-hydroxy-2-methylphenoxy)pentyloxy]-2-chlorobenzoic acid], the EC50 worked out at 8 nM on Rat mGlu2, 577 nM at Rat mGlu3, 6 nM at Human mGlu2 and 300 nM at Human mGlu3.
Consider `COc1cc(F)c(C(=O)O)cc1-c1cccc(COc2ccc(C(=O)CC(C)(C)C)c(O)c2C)c1` [Example 164, 3′-((4-(3,3-dimethylbutanoyl)-3-hydroxy-2-methylphenoxy)methyl)-4-fluoro-6-methoxy-[1,1′-biphenyl]-3-carboxylic acid], for which the EC50 was found to be 110 nM at Rat mGlu2, 559 nM on Rat mGlu3, 39 nM at Human mGlu2 and 242 nM on Human mGlu3.
Take `COc1ccc(C(=O)O)cc1OCCCCOc1ccc(C(=O)c2ccccc2)c(O)c1C` [compound 59, 3-(4-(4-Benzoyl-3-hydroxy-2-methylphenoxy)butoxy)-4-methoxybenzoic acid]: the EC50 was 182 nM at Rat mGlu2, 222 nM at Rat mGlu3, 325 nM at Human mGlu2 and 408 nM at Human mGlu3.
For `COc1ccc(C(=O)O)cc1OCCCCOc1ccc(C(=O)C2CC2)c(O)c1C` [compound 60, 3-(4-(4-(Cyclopropanecarbonyl)-3-hydroxy-2-methylphenoxy)butoxy)-4-methoxybenzoic acid] the same measures were 117 nM, > 10000 nM, 60 nM and 598 nM.
For `COc1ccc(C(=O)O)cc1OCCCCOc1ccc(C(=O)c2ccc(F)cc2)c(O)c1C` [compound 65, 3-(4-(4-(4-Fluorobenzoyl)-3-hydroxy-2-methylphenoxy)butoxy)-4-methoxybenzoic acid], in that order: 1150 nM, 3030 nM, 143 nM and 342 nM.
For `COc1ccc(C(=O)O)cc1-c1cncc(COc2ccc(C(=O)C3CC3)c(O)c2C)n1` [compound 69, 3-(6-((4-(Cyclopropanecarbonyl)-3-hydroxy-2-methylphenoxy)methyl)pyrazin-2-yl)-4-methoxybenzoic acid], in that order: 49 nM, 28 nM, 33 nM and 23 nM.
With `Cc1c(OCCCCSc2cccc(C(=O)O)c2)ccc(C(=O)CC(C)C)c1O` [compound 81, 3-((4-(3-Hydroxy-2-methyl-4-(3-methylbutanoyl)phenoxy)butyl)thio)benzoic acid], the EC50 on Rat mGlu2 stood at 326 nM; on Rat mGlu3, 1490 nM; on Human mGlu2, 163 nM; at Human mGlu3, 966 nM.
Take `COc1ccc(C(=O)O)cc1OCCCCSc1ccc(C(=O)CC(C)(C)C)c(O)c1C` [compound 84, 3-{4-[4-(3,3-Dimethylbutanoyl)-3-hydroxy-2-methylphenylthio]butoxy}-4-methoxybenzoic acid]: the 50% effective concentration (EC50) came out at 382 nM on Rat mGlu2, 953 nM at Rat mGlu3, 126 nM at Human mGlu2 and 340 nM at Human mGlu3.
For `Cc1c(OCOc2ccc(C(=O)CC(C)(C)C)c(O)c2C)cccc1C(=O)O` [compound 94, 3-{[4-(3,3-Dimethylbutanoyl)-3-hydroxy-2-methylphenoxy]methoxy}-2-methylbenzoic acid] the same measures were 441 nM, > 30000 nM, 100 nM and > 10000 nM.
For the compound `Cc1c(OCCCCOc2ccc(C(=O)O)c(F)c2)ccc(C(=O)CC(C)C)c1O` [compound 100, 2-Fluoro-4-{4-[3-hydroxy-2-methyl-4-(3-methylbutanoyl)phenoxy]butoxy}benzoic acid], the EC50 was found to be 79 nM on Rat mGlu2, 732 nM at Rat mGlu3, 15 nM at Human mGlu2 and 773 nM at Human mGlu3.
For `CCCC(=O)c1ccc(OCCCCOc2ccc(C(=O)O)c(Cl)c2)c(C)c1O` [compound 101, 4-[4-(4-Butanoyl-3-hydroxy-2-methylphenoxy)butoxy]-2-chlorobenzoic acid] the same measures were 33 nM, > 30000 nM, 16 nM and > 30000 nM.
Take `COc1c(C(=O)O)cccc1-c1cccc(COc2ccc(C(=O)CC(C)(C)C)c(O)c2C)c1` [compound 102, 3-(3-{[4-(3,3-Dimethylbutanoyl)-3-hydroxy-2-methylphenoxy]methyl}phenyl)-2-methoxybenzoic acid]: the EC50 was 93 nM on Rat mGlu2, 493 nM on Rat mGlu3, 54 nM at Human mGlu2 and 159 nM at Human mGlu3.
For `CCCC(=O)c1ccc(OCc2cnc(-c3cccc(C(=O)O)c3OC)cn2)c(C)c1O` [compound 103, 3-{5-[(4-Butanoyl-3-hydroxy-2-methylphenoxy)methyl]pyrazin-2-yl}-2-methoxybenzoic acid], in that order: 198 nM, 481 nM, 54 nM and 375 nM.
Turning to `COc1c(C(=O)O)cccc1-c1ccc(COc2ccc(C(=O)CC(C)(C)C)c(O)c2C)cc1` [compound 104, 3-(4-{[4-(3,3-Dimethylbutanoyl)-3-hydroxy-2-methylphenoxy]methyl}phenyl)-2-methoxybenzoic acid], the half-maximal effective concentration (EC50) on Rat mGlu2 came out at 303 nM; at Rat mGlu3, 69 nM; on Human mGlu2, 190 nM; on Human mGlu3, 222 nM.
Consider `Cc1c(OCc2cnc(-c3ccc(F)c(C(=O)O)c3)cn2)ccc(C(=O)CC(C)(C)C)c1O` [compound 115, 5-(5-((4-(3,3-Dimethylbutanoyl)-3-hydroxy-2-methylphenoxy)methyl)pyrazin-2-yl)-2-fluorobenzoic acid], for which the EC50 was 356 nM at Rat mGlu2, 43 nM at Rat mGlu3, 355 nM at Human mGlu2 and 156 nM on Human mGlu3.
For the compound `COc1ccc(C(=O)O)cc1-c1cnc(COc2ccc(C(=O)CC(C)(C)C)c(O)c2C)cn1` [compound 116, 3-(5-((4-(3,3-Dimethylbutanoyl)-3-hydroxy-2-methylphenoxy)methyl)pyrazin-2-yl)-4-methoxybenzoic acid], the EC50 on Rat mGlu2 is 117 nM; at Rat mGlu3, 28 nM; at Human mGlu2, 234 nM; on Human mGlu3, 213 nM.
For `COc1ccc(C(=O)NC2CC2)cc1-c1cnc(COc2ccc(C(=O)CC(C)(C)C)c(O)c2C)cn1` [compound 127, N-Cyclopropyl-3-(5-((4-(3,3-dimethylbutanoyl)-3-hydroxy-2-methylphenoxy)methyl)pyrazin-2-yl)-4-methoxybenzamide], in that order: 373 nM, 134 nM, 189 nM and 140 nM.

The values above are taken from US20250179000A1 (Sanford Burnham Prebys Medical Discovery Institute, priority 2021, published 2025).
